In US20240269139A1, “COMPOUNDS FOR TARGETED PROTEIN DEGRADATION OF KINASES” (DANA-FARBER CANCER INSTITUTE, INC., priority 2020, published 2024):
Like-named read-outs stand apart in the source and are kept apart here.

Tests used:
[1] = target: protein kinases (human kinome) (Homo sapiens, UniProt Q16877); assay type: cell-based; settings: PFKFB4 (Q16877); experiment wp071
[2] = target: T1, protein kinases (human kinome) (Homo sapiens, UniProt O14965); assay type: cell-based; settings: experiment wp076
T1 sequence (O14965 1-403): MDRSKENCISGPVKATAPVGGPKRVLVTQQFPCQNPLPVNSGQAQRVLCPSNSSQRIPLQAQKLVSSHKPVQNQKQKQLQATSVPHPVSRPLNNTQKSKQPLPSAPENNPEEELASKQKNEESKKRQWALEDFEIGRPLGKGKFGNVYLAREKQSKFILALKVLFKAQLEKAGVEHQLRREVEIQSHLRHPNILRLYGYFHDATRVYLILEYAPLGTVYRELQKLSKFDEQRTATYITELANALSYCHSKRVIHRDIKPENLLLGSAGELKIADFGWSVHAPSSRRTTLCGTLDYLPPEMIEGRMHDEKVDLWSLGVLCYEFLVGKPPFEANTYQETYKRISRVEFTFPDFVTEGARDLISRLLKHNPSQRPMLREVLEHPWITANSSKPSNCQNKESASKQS

[3] = system: protein kinases (human kinome); assay type: cell-based
[4] = target: T2, protein kinases (human kinome) (Homo sapiens, UniProt P52789); assay type: cell-based; settings: HK2 (P52789); experiment wp076
T2 sequence (P52789 1-917): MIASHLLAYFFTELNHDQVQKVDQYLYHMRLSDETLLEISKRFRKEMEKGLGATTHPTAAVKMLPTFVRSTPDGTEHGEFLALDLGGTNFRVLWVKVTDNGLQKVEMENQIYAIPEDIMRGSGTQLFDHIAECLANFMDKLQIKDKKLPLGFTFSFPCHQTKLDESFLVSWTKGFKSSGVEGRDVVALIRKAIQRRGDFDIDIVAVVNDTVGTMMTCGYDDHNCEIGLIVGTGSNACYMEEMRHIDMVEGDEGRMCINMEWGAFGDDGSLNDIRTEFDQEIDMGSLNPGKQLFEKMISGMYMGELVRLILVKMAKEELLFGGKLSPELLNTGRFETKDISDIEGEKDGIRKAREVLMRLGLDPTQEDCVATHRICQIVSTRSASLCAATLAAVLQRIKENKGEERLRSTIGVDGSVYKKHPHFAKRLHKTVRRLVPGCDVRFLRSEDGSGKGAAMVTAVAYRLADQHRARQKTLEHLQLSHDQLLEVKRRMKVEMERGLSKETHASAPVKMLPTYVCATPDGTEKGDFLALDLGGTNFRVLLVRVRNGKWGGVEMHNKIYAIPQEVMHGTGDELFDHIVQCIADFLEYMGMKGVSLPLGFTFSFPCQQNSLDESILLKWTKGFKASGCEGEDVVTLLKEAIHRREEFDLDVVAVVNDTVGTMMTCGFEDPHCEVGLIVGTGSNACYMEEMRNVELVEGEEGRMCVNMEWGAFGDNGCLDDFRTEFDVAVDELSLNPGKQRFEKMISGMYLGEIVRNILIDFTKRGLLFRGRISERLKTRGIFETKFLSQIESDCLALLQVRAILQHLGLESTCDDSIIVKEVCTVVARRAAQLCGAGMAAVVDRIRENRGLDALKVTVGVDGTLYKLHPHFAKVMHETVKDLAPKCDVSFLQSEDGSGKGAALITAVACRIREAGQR

[5] = target: protein kinases (human kinome) (Homo sapiens, UniProt P51812); assay type: cell-based; settings: RPS6KA3 (P51812), experiment wp076
[6] = target: protein kinases (human kinome) (Homo sapiens, UniProt Q9BYT3); assay type: cell-based; settings: STK33 (Q9BYT3-1), experiment wp076
[7] = target: protein kinases (human kinome) (Homo sapiens, UniProt Q14289); assay type: cell-based
[8] = target: T3, protein kinases (human kinome) (Homo sapiens, UniProt O60285); assay type: cell-based; settings: NUAK1 (O60285), experiment wp076
T3 sequence (O60285 1-661): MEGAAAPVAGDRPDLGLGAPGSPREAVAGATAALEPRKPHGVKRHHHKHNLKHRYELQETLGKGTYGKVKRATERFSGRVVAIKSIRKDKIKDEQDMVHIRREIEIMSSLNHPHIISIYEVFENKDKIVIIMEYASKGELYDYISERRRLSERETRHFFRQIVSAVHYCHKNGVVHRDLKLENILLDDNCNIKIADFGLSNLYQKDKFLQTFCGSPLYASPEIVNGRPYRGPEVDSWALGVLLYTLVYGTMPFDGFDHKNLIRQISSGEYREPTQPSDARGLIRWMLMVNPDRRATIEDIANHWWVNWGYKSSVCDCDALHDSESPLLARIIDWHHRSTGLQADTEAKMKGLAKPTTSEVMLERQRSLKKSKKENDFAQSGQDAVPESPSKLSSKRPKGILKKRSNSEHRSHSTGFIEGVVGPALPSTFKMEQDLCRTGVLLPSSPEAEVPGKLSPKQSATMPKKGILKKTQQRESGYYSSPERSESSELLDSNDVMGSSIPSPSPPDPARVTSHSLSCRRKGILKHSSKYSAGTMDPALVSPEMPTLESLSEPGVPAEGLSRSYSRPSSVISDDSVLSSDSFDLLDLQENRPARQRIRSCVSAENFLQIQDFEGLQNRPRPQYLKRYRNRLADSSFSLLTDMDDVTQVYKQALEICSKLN

[9] = target: protein kinases (human kinome) (Homo sapiens, UniProt P30291); assay type: cell-based; settings: experiment wp076
[10] = target: T4, CRBN-degrader-kinase ternary complexes (Homo sapiens, UniProt Q96SW2); experiment: FLAG-CRBN affinity purification TMT LC-MS3 (AP-MS) of degrader-mediated ternary complexes; assay type: cell-based, H. sapiens; settings: HEK293T, 1 μM, 5 h, proteasome inhibitor
T4 construct: host or cells: HEK293T
Text: An important aspect of protein degraders is the multifaceted nature of the molecule that enables heightened target selectivity due to differences in complementarity of target-ligase interactions, which is not a consideration when assessing selectivity of inhibitors for target engagement (Famaby el al., Nat Chem Biol 15:672-680 (2019)). For compound-induced degradation to be successful, productive ternary complex formation (ligase-degrader-POI) is necessary for proximity-mediated ubiquitin transfer onto the POI. […] Cellular affinity purification was performed, followed by mass spectrometry (AP-MS) of FLAG-tagged CRBN transiently overexpressed in HEK293T cells. FLAG-CRBN expressing cells were co-treated with proteosome inhibitor and 1 μM of each degrader for 5 h, and the degree of kinase target enrichment was compared to kinase degradation hits in matched global proteomics analysis experiments (FIG. 3A, FIG. 3C). The proteins identified as complexed with CRBN were enriched for kinases as well as their known binding partners such as Cyclin B (CDK1) and RASSF1 (STK4), consistent with the binding profiles of the assayed degraders. All kinases identified by AP-MS except CSNK1A1 were also detected in the HEK293T whole proteome degrader profiling experiment, allowing us to interrogate trends across 52 unique kinases (FIG. 4A; FIG. 11B). Limitations of this experiment include the potential loss of transient or weakly bound complexes in the enrichment and subsequent wash steps, the inherent noise associated with AP-MS relative to global proteomics analysis (Dunham et al., Proteomics 12:1576-1590 (2012): Yugandhar et al., Comput Struct Biotechnol J 17:805-811 (2019)) and the short time point of the experiment, which precludes detection of degradation events with slow kinetics. Therefore, the relationship between the formation of abundant, stable ternary complexes and rapid degradation was assessed.
HEK293T cells were seeded into 15 cm plates and cells were transiently transfected with 8 μg of pNTM-FLAG-CRBN construct using lipofectamine 2000. […] Cells were harvested with non-enzymatic CellStripper™ Dissociation reagent (Corning®), followed by three washes with cold PBS and snap freezing. Cell lysis was performed by the addition of IP lysis buffer (50 mM Tris. pH 7.5, 0.5% NP-40, 1 mM EDTA, 10% glycerol and 200 mM NaCl) containing protease inhibitor cocktail (cOmplete™) and relevant co-treatment (above), followed by end-over-end rotation at 4° C. for 3 hours. Lysate was clarified by centrifugation and salt concentration diluted to 100 mM NaCl with the addition of 0 mM NaCl lysis buffer (containing protease inhibitors and 1 μM of relevant compounds to retain temary complexes throughout binding). Lysate was added to 20 μL of pre-washed anti-FLAG M2 magnetic bead slurry (MilliporeSigma) and incubated with end-over-end rotation at 4° C. overnight. Beads were washed six times with 100 mM NaCl lysis buffer containing 1 μM of relevant degraders to retain ternary complexes throughout wash steps.
Proteins were eluted in a two-step elution with the addition of 0.1 M Glycine hydrochloride (MilliporeSigma) and elution buffered to pH 8.5 using 200 mM Tris buffer, pH 8.5. […] Protein pellets were resuspended in 50 μL of EPPs pH 8 and first digested with 2 μg LysC for 12 h at room temperature (RT), followed by 1 μg of trypsin for 6 hours at 37° C.

[11] = assay type: cell-based, H. sapiens; settings: MOLT-4, 1 μM, 5 h, 5 μM CB-5083
CRBN = target: T5, CRBN (Homo sapiens, UniProt Q96SW2); experiment: Competitive displacement assay for cellular CRBN engagement (BRD4BD2-GFP reporter, dBET6); assay type: cell-based, H. sapiens; settings: 5 hours in presence of dBET6
T5 construct: HEK293T cells stably expressing the BRD4BD2-GFP with mCherry reporter; endogenous in cells; host or cells: HEK293T stably expressing BRD4BD2-GFP / mCherry reporter
Protocol: HEK293T cells stably expressing the BRD4BD2-GFP with mCherry reporter were seeded at 30-50% confluency in 384-well plates with 50 μL FluoroBrite™ Dulbecco's Modified Eagle's medium (DMEM) media (Thermo Fisher Scientific. A18967) containing 10% fetal bovine serum (FBS) per well a day before compound treatment. Degrader titrations and 100 nM dBET6 or 250 nM AT1 were dispensed using a D300e Digital Dispenser (HP), normalized to 0.5% DMSO, and incubated with cells for 5 hours. Assay plates were imaged using Acumen® (TTP Labtech), as described above.

[12] = target: protein kinases (human kinome) (Homo sapiens, UniProt P49759); assay type: cell-based

SMILES: COc1cc(N2CCN(CC(=O)NCCCCCCNc3cccc4c3C(=O)N(C3CCC(=O)NC3=O)C4=O)CC2)ccc1Nc1ncc2c(n1)N(C)c1ccccc1C(=O)N2CC(F)(F)F (centres unmarked) [FMF.04.135.1]
- logFC [1]: −0.4969

SMILES: CNC(=O)c1ccccc1Nc1cc(Nc2ccc(N3CCN(CCCCCCCCNc4cccc5c4C(=O)N(C4CCC(=O)NC4=O)C5=O)CC3)cc2OC)ncc1C(F)(F)F (centres unmarked) [MFH.5.116.1]
- logFC AURKA (O14965) [2]: −0.707
- logFC RPS6KA1 ([3]; RPS6KA1 (Q15418-2), experiment wp076): −0.5757
- logFC RPS6KA1 (Q15418-2) ([3]; experiment wp076): −0.5757
- logFC [4]: −0.4347
- logFC [5]: −0.369
- logFC ([5]; direction down): −0.369
- logFC [6]: −1.382
- logFC ([6]; direction down): −1.382
- logFC ([7]; PTK2B (Q14289-1) protein abundance, degrader vs DMSO, down): −2.946
- logFC PTK2B ([7]; PTK2B, accession Q14289-1, experiment wp076, direction of change down): −2.946
- logFC [8]: −0.7078
- logFC ([8]; direction down): −0.7078
- logFC of WEE1 ([9]; WEE1 P30291-1, degrader vs DMSO): −0.4799
- logFC WEE1 (P30291-1) [9]: −0.4799

SMILES: Nc1ncc(-c2ccc(S(=O)(=O)N(CCCNC(=O)CCOCCOCCOCCOCCOCCNc3cccc4c3C(=O)N(C3CCC(=O)NC3=O)C4=O)C3CC3)cc2)cc1-c1ccc2c(c1)CCNC2=O (centres unmarked) [WH-10417-099]
- IRAK1: ternary complex formation with CRBN versus degradation [10]: complex formation does not predict degradation
- targets with significantly different degrader efficacy in the different cell lines with no obvious difference in protein expression ([3]; MOLT-4, KELLY, HEK293T): GSK3B
- kinases the bifunctional compound degrades ([3]; as stated for the structure in the embodiments): CDK14, CSNK1A1, CSNK1D, CSNK1E, GSK3A, GSK3B, LIMK2, MAP3K1, MINK1, NUAK1, PAK4, PIM2, STK10, STK17B, STK35, and STK4
- Kinase hits ([3]; kinases significantly downregulated vs DMSO (fold change cutoff −1.25, P-value<0.01), ≤8 h, 0.1-5 μM degrader, 7 cell lines): CDK14, CSNK1A1, CSNK1D, CSNK1E, GSK3A, GSK3B, LIMK2, MAP3K1, MINK1, NUAK1, PAK4, PIM2, STK10, STKI7B, STK35, STK4
- Total no. kinase hits ([3]; number of degraded kinases per library compound): 13
- STK4 degradation rescue on p97 inhibition [11]: very little degradation rescue
- cellular permeability / CRBN engagement (CRBN): able to permeate the cell membrane and bind to the CRBN E3 ligase

SMILES: Cc1ncsc1-c1ccc([C@H](C)NC(=O)[C@@H]2C[C@@H](O)CN2C(=O)[C@@H](NC(=O)CCOCCOCCOCCN2CCC(C(=O)Nc3ncc(SCc4ncc(C(C)(C)C)o4)s3)CC2)C(C)(C)C)cc1 [ZZ.01.31B]
- logFC ([3]; CDK9 (P50750-2) protein abundance, degrader vs DMSO, down): −0.837
- logFC CDK9 (P50750-2) ([3]; Experiment wp195): −0.837
- logFC CLK1 ([12]; CLK1 P49759, experiment wp195): −0.3482
- logFC of CLK1 (P49759) ([12]; Experiment wp195): −0.3482
